Source: patent publication US7736911B2, “Activity-based probes for protein tyrosine phosphatases” (Albert Einstein College of Medicine of Yeshiva University, priority 2004, dated 2010)

Legend:
[1] = Solubility in aqueous solution; type: physicochemical; details: compared with II
[2] = tested on: PTPs: YopH, PTP1B, HePTP, SHP2, FAP-1, PTPα, DEP-1, VHR, Cdc14, PRL3, low molecular weight PTP; type: binding; details: pH 6
[3] = Stability of probe in buffers and toward nucleophiles (NMR and mass spectrometry)
[4] = tested on: panel of non-PTP enzymes/proteins; type: binding
[5] = tested on: PTPs, including PTP1B, HePTP, SHP2, LAR, PTPα, PTPH1, VHR, and Cdc14; test: PTP inactivation by BBP-based probes, several PTPs (pNPP substrate); type: biochemical; details: for effectiveness at inhibiting PTP activity, I compared with II: pNPP as substrate
[6] = tested on: total cell lysates from E. coli; type: binding

Molecule: O=C(CCCCC1SCC2NC(=O)NC21)NCc1ccc(C(Br)P(=O)(O)O)cc1 (stereo not shown) [Compound I, [Bromo-(4-{[5-(2-oxo-hexahydro-thieno[3,4-d]imidazol-6-yl)-pentanoylamino]-methyl}-phenyl)-methyl]-phosphonic acid]
- solubility in aqueous solution [1]: better solubility in aqueous solution
- covalent labeling of PTPs [2]: covalently incorporated into all PTPs tested
- reaction with nucleophilic agents ([3]; 48 hours with 100 mM DTT, 50 mM azide or 50 mM cysteine, pH 6 or 7 buffers): did not produce the expected substitution products
- stability in buffer ([3]; pH 6 buffers): quite stable
- stability in buffer (solvolysis) ([3]; pH>7): significant solvolysis could be detected
- reactivity towards non-PTP enzymes/proteins [4]: none of the proteins tested were reactive
- effect of scavenging nucleophiles on rate of PTP inactivation [5]: did not affect the rate
- reversibility of PTP inactivation ([5]; extensive dialysis and/or buffer exchange of the reaction mixture): irreversible
- effectiveness at inhibiting PTP activity, I compared with II [5]: equally effective at inhibiting PTP activity
- labeling of E. coli proteins [6]: no E. coli proteins were labeled

Molecule: O=C(CCCCC1SCC2NC(=O)NC21)NCCCCCC(=O)NCc1ccc(C(Br)P(=O)(O)O)cc1 (stereo not shown) [Compound II, {Bromo-[4-({6-[5-(2-oxo-hexahydro-thieno[3,4-d]imidazol-6-yl)-pentanoylamino]-hexanoylamino}-methyl)-phenyl]-methyl}-phosphonic acid]
- effectiveness at inhibiting PTP activity, I compared with II [5]: equally effective at inhibiting PTP activity

Molecule: O=C(O)CCCC[C@@H]1SC[C@@H]2NC(=O)N[C@@H]21 [biotin, reference compound]
- covalent labeling of PTPs [2]: did not label the PTPs

Molecule: arsenate [reference compound]
- protection of PTP from BBP-mediated inactivation [5]: able to protect PTP from BBP-mediated inactivation
